In brackets after ≈: the same amount, converted by molar mass.
Tests used:
[1] = tested on: Brain; test: Free drug level in CD-1 mouse brain at 3 mg/kg, iv and 10 mg/kg, po measured at 4 hrs post dose; type: ADME, organism-based; conditions: in vivo
[2] = tested on: Plasma; test: Free plasma concentration in CD-1 mouse at 3 mg/kg, iv and 10 mg/kg, po measured at 1 hr post dose; type: ADME, organism-based; conditions: in vivo
[3] = tested on: Brain; test: Free drug level in CD-1 mouse brain at 3 mg/kg, iv and 10 mg/kg, po measured at 1 hr post dose; type: ADME, organism-based; conditions: in vivo
[4] = tested on: Plasma; test: Free plasma concentration in CD-1 mouse at 3 mg/kg, iv and 10 mg/kg, po measured at 4 hrs post dose; type: ADME, organism-based; conditions: in vivo
[5] = tested on: Mus musculus; test: Unbound clearance in CD-1 mouse at 3 mg/kg, iv and 10 mg/kg, po; type: ADME, organism-based; conditions: in vivo
[6] = Systemic clearance in CD-1 mouse at 3 mg/kg, iv and 10 mg/kg, po; type: ADME, organism-based; conditions: in vivo, read-out: CLH
[7] = biological target: T1, Beta-secretase 1 (Homo sapiens, UniProt P56817); test: Inhibition of BACE1 in HEK293 cells expressing swedish double mutant APP assessed as amyloid beta (1 to 40) peptide level after 7 hrs by HTRF assay; type: cell-based
T1 sequence (P56817 whole entry): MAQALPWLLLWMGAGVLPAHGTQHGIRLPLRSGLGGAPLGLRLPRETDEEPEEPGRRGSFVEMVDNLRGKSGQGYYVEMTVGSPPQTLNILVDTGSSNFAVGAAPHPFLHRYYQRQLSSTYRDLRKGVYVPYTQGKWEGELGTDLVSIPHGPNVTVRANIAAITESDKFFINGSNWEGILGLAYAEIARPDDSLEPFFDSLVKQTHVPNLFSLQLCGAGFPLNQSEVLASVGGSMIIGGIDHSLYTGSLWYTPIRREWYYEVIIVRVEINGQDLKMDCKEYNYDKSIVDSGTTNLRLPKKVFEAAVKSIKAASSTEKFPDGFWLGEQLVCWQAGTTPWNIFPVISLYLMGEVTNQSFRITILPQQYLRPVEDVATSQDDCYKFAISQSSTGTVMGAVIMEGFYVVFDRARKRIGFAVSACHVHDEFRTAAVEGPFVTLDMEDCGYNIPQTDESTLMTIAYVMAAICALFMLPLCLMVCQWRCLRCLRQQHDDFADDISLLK

[8] = biological target: T1, Beta-secretase 1; test: Inhibition of purified recombinant human BACE1 expressed in CHO cells assessed as uncleaved biotinylated sAPP after 2 hrs by HTRF assay
[9] = tested on: MDR1 (human); test: (§1) Apparent permeability from apical to basolateral side in pig LLC-PK1 cells transfected with human MDR1; type: ADME, cell-based, Sus scrofa; conditions: LLC-PK1
[10] = tested on: MDR1 (human); test: (§2) Efflux ratio of permeability from basolateral to apical side to apical to basolateral side in pig LLC-PK1 cells transfected with human MDR1 at 1 uM; type: ADME, cell-based, Sus scrofa; conditions: LLC-PK1
[11] = tested on: CHO; test: Ratio of IC50 for cathepsin D purified from human spleen to IC50 for purified recombinant human BACE1 expressed in CHO cells
[12] = tested on: Rattus norvegicus; test: Reduction in amyloid beta(1 to 40) in Sprague-Dawley rat CSF at 60 mg/kg, po measured at 3 hrs post dose; type: functional; design: scale not given: the % may be the effect or the level left
[13] = Drug level in Sprague-Dawley rat CSF at 60 mg/kg, po measured at 3 hrs post dose; type: ADME, organism-based, Cerebrospinal fluid; design: dose 60 mg/kg, route oral; conditions: read-out: Drug uptake
[14] = tested on: Rattus norvegicus; test: Reduction in amyloid beta(1 to 40) in Sprague-Dawley rat CSF at 60 mg/kg, po measured at 5 hrs post dose; type: functional; design: scale not given: the % may be the effect or the level left
[15] = tested on: Brain; test: Free drug level in Sprague-Dawley rat brain at 60 mg/kg, po measured at 3 hrs post dose; type: ADME, organism-based; design: dose 60 mg/kg, route oral; conditions: in vivo
[16] = tested on: LLC-PK1; test: as §1; type: ADME, cell-based, Sus scrofa; conditions: llc-pk1
[17] = tested on: LLC-PK1; test: as §2; type: ADME, cell-based, Sus scrofa; conditions: llc-pk1, 1 µM, 1 µM
[18] = Ratio of free drug level in brain of Sprague-Dawley rat at 60 mg/kg, po measured at 5 hrs post dose to IC50 for BACE1 in HEK293 cells expressing swedish double mutant APP; type: ADME, organism-based; design: dose 60 mg/kg, route oral; conditions: in vivo
[19] = Ratio of free drug level in brain of Sprague-Dawley rat at 60 mg/kg, po measured at 3 hrs post dose to IC50 for BACE1 in HEK293 cells expressing swedish double mutant APP; type: ADME, organism-based; design: dose 60 mg/kg, route oral; conditions: in vivo
[20] = tested on: Brain; test: Free drug level in Sprague-Dawley rat brain at 60 mg/kg, po measured at 5 hrs post dose; type: ADME, organism-based; design: dose 60 mg/kg, route oral; conditions: in vivo
[21] = Solubility of the compound at pH 7.2; type: physicochemical; conditions: buffer
[22] = tested on: Plasma; test: Free plasma concentration in Sprague-Dawley rat at 60 mg/kg, po measured at 5 hrs post dose; type: ADME, organism-based; design: dose 60 mg/kg, route oral; conditions: in vivo
[23] = Fraction unbound in Sprague-Dawley rat brain; type: ADME, tissue-based
[24] = Ratio of free drug level in brain to plasma of Sprague-Dawley rat at 60 mg/kg, po measured at 5 hrs post dose; type: ADME, organism-based; design: dose 60 mg/kg, route oral; conditions: brain and plasma, read-out: BPR
[25] = Ratio of free drug level in brain to plasma of Sprague-Dawley rat at 60 mg/kg, po measured at 3 hrs post dose; type: ADME, organism-based; design: dose 60 mg/kg, route oral; conditions: brain and plasma, read-out: BPR
[26] = tested on: Plasma; test: Free plasma concentration in Sprague-Dawley rat at 60 mg/kg, po measured at 3 hrs post dose; type: ADME, organism-based; design: dose 60 mg/kg, route oral; conditions: in vivo
[27] = Drug level in Sprague-Dawley rat CSF at 60 mg/kg, po measured at 5 hrs post dose; type: ADME, organism-based, Cerebrospinal fluid; design: dose 60 mg/kg, route oral; conditions: read-out: Drug uptake
[28] = Fraction unbound in CD-1 mouse plasma; type: ADME, cell-free
[29] = Fraction unbound in CD-1 mouse brain; type: ADME, tissue-based
[30] = Ratio of free drug level in brain to plasma of CD-1 mouse at 3 mg/kg, iv and 10 mg/kg, po measured at 1 hr post dose; type: ADME, organism-based; conditions: read-out: BPR
[31] = Ratio of free drug level in brain of CD-1 mouse at 3 mg/kg, iv and 10 mg/kg, po measured at 1 hr post dose to IC50 for BACE1 in HEK293 cells expressing swedish double mutant APP; type: ADME, organism-based; conditions: hek293, 1 h
[32] = Ratio of free drug level in brain to plasma of CD-1 mouse brain at 3 mg/kg, iv and 10 mg/kg, po measured at 4 hrs post dose; type: ADME, organism-based; conditions: read-out: BPR
[33] = Ratio of free drug level in brain of CD-1 mouse at 3 mg/kg, iv and 10 mg/kg, po measured at 4 hrs post dose to IC50 for BACE1 in HEK293 cells expressing swedish double mutant APP; type: ADME, organism-based; conditions: hek293, 4 h

IC50 [7] [nM]	IC50 [8] [nM]	Papp A→B [9] [×10⁻⁶ cm/s]	efflux ratio at 1 µM [10]	Compound	Ratio IC50 [11]	other results
				CN1C(=O)[C@]2(N=C1N)c1cc(-c3cccnc3F)ccc1O[C@H]1CCOC[C@@H]12		Drug uptake [1]: 8.4 nM; Cp(f) [2]: 320 nM; Drug uptake [3]: 11 nM; Cp(f) [4]: 75 nM; CL free [5]: 330 mL/min/kg; clearance [6]: 70 mL/min/kg
759	1100			NC1=N[C@@]2(CO1)c1cc(-c3cccnc3F)ccc1O[C@@H]1CCCO[C@H]12		
550	810	37	1.2	NC1=N[C@@]2(CS1)c1cc(-c3cccnc3F)ccc1O[C@@H]1CCCO[C@H]12	> 250	
39	45			C[C@]12CCCO[C@@H]1[C@]1(COC(N)=N1)c1cc(-c3cccc(C#N)c3)ccc1O2 [listing 1 of 2 here]		Activity [12]: 63%; concentration at 3 h [13]: 150 nM; Activity [14]: 69%; Drug uptake(free) [15]: 88 nM; Papp [16]: 19 ×10⁻⁶ cm/s; Ratio [17]: 3.4; Ratio [18]: 2.1; Ratio [19]: 2.3; Drug uptake(free) [20]: 80 nM; solubility [21]: 57 µg/mL (≈ 152 µM); Cp(f) [22]: 250 nM; fraction unbound [23]: 0.014; Kp uu at 5 h [24]: 0.32; Kp uu at 3 h [25]: 0.33; Cp(f) [26]: 270 nM; concentration at 5 h [27]: 230 nM
				C[C@]12CCCO[C@@H]1[C@]1(COC(N)=N1)c1cc(-c3cccc(C#N)c3)ccc1O2 [listing 2 of 2 here]	1300	
37	52	25	7.1	C[C@]12CCCO[C@@H]1[C@]1(COC(N)=N1)c1cc(-c3cncc(Cl)c3)ccc1O2 (racemic)	2100	
100	98	30	3.2	C[C@]12CCCO[C@@H]1[C@]1(COC(N)=N1)c1cc(-c3cccc(C#N)c3)ccc1O2 (racemic) [listing 1 of 2 here]		Drug uptake [1]: 7.5 nM; Cp(f) [2]: 54 nM; Drug uptake [3]: 13 nM; fraction unbound [28]: 0.039; Cp(f) [4]: 35 nM; fraction unbound [29]: 0.013; CL free [5]: 870 mL/min/kg; Kp uu at 1 h [30]: 0.24; Ratio [31]: 0.13; Kp uu at 4 h [32]: 0.21; clearance [6]: 34 mL/min/kg; Ratio [33]: 0.075
				C[C@]12CCCO[C@@H]1[C@]1(COC(N)=N1)c1cc(-c3cccc(C#N)c3)ccc1O2 (racemic) [listing 2 of 2 here]	840	
12	48	6.8	31	CN1C(=O)[C@]2(N=C1N)c1cc(-c3cccnc3F)ccc1O[C@H]1CCCO[C@@H]12 (relative stereo)	50	Drug uptake [1]: 1.6 nM; Cp(f) [2]: 120 nM; Drug uptake [3]: 1.7 nM; fraction unbound [28]: 0.18; Cp(f) [4]: 36 nM; fraction unbound [29]: 0.037; CL free [5]: 600 mL/min/kg; Kp uu at 1 h [30]: 0.014; Ratio [31]: 0.14; Kp uu at 4 h [32]: 0.044; clearance [6]: 110 mL/min/kg; Ratio [33]: 0.13
1900	700			CN1C(=O)[C@]2(N=C1N)c1cc(-c3cccnc3F)ccc1O[C@@H]1CCCO[C@H]12 (relative stereo)	19	
5.7	13	5.3	110	CN1C(=O)[C@]2(N=C1N)c1cc(-c3cccnc3F)ccc1O[C@@]1(C)CCCO[C@@H]12 (relative stereo)	510	
37	26	6	31	CN1C(=O)[C@]2(N=C1N)c1cc(-c3cccnc3F)ccc1O[C@]1(C)CCCO[C@H]12 (relative stereo)	69	
60	76	29	6.2	C[C@]12CCCO[C@@H]1[C@]1(COC(N)=N1)c1cc(-c3cccnc3F)ccc1O2 (relative stereo)	430	Drug uptake [1]: 1.1 nM; Cp(f) [2]: 37 nM; Drug uptake [3]: 6 nM; fraction unbound [28]: 0.11; Cp(f) [4]: 6.8 nM; fraction unbound [29]: 0.04; CL free [5]: 1300 mL/min/kg; Kp uu at 1 h [30]: 0.16; Ratio [31]: 0.1; Kp uu at 4 h [32]: 0.16; clearance [6]: 150 mL/min/kg; Ratio [33]: 0.018
130	210	33	4.8	C[C@@]12CCCO[C@H]1[C@]1(COC(N)=N1)c1cc(-c3cccnc3F)ccc1O2 (relative stereo)	48	
86	27	31	2	C[C@]12CCCO[C@@H]1[C@]1(CSC(N)=N1)c1cc(-c3cccnc3F)ccc1O2 (relative stereo)	890	
48	51	12	3.3	C[C@]12CCCO[C@@H]1[C@]1(CSC(N)=N1)c1cc(-c3cncc(Cl)c3)ccc1O2 (relative stereo)	1100	
93	55	5.6	1.7	C[C@]12CCCO[C@@H]1[C@]1(COC(N)=N1)c1cc(-c3cc(F)cc(Cl)c3)ccc1O2 (relative stereo)	530	
110	41	1.4	1.2	C[C@]12CCCO[C@@H]1[C@]1(CSC(N)=N1)c1cc(-c3cc(F)cc(Cl)c3)ccc1O2 (relative stereo)	830	
140	41	14	1.8	C[C@]12CCCO[C@@H]1[C@]1(CSC(N)=N1)c1cc(-c3cccc(C#N)c3)ccc1O2 (relative stereo)	680	
81	56	29	3.1	C[C@]12CCCO[C@@H]1[C@]1(CSC(N)=N1)c1cc(-c3cncnc3)ccc1O2 (relative stereo)	1100	
56	89	23	9.8	C[C@]12CCCO[C@@H]1[C@]1(COC(N)=N1)c1cc(-c3cncnc3)ccc1O2 (single isomer, unassigned)	> 2200	
